Assay results taken from patent US12648948B2, “Methods and compositions for treating cancer” (UNITED STATES GOVERNMENT AS REPRESENTED BY THE DEPARTMENT …, priority 2017, dated 2026).

Tests used:
[1] = test system: Met; test: Western blot, Met activation in glioma cells; format: cell-based, human; conditions: erlotinib; established cell lines and patient derived neurospheres
Protocol: Western blot analysis was performed according to standard protocols.

[2] = test system: AP-1 transcriptional activity; test: AP-1 luciferase reporter assay; format: cell-based, human; conditions: erlotinib 1 μM, 24 h; GBM9 and U87EGFRwt cells
Protocol: (§1) Cells were plated in 48 well dishes to 70%-80% confluence followed by with […] or 3xAP1pGL3 reporter plasmid using lipofectamine 2000. A dual-luciferase reporter assay system was used according to manufacturer's instructions (Promega, Madison WI). Firefly luciferase activity was measured in a luminometer and normalized on the basis of Renilla luciferase activity. Experiments were done in triplicate and 3 independent experiments were done.

[3] = test system: GBM9 and GBM39 neurospheres; test: AlamarBlue cell viability assay, patient derived GBM neurospheres; format: cell-based, human; conditions: 72 h
Protocol: Cell viability assay was conducted using AlamarBlue cell viability assay kit (ThermoFisher) following manufacturer's protocol. Cells were cultured in Corning 96-well black plates with clear bottom (5000 cells/well). Drugs were added to cells for 72 hour following detection using POLARstar Omega Microplate Reader (excitation at 544 nm and emission at 590 nm) (BMG LABTECH, Germany).

[4] = test system: NF-κB transcriptional activity; test: NF-κB luciferase reporter assay; format: cell-based, human; conditions: erlotinib 24 h, 100 nM GBM9, 1 uM U87EGFRwt; LPS 1 μg/ml
Protocol: as §1

[5] = mouse, in vivo
[6] = test system: GAS6; test: GAS6 expression (real time PCR, ELISA, Western blot); format: cell-based, human; conditions: erlotinib; patient derived neurospheres and established GBM cell lines
Protocol: Total RNA was isolated by TRIzol Reagent (Ambion). cDNA Reverse Transcription were performed by using High-Capacity cDNA Reverse Transcription Kit (Applied Biosystems). […] Each PCR was carried out in triplicate in a 20 μl volume using SYBR Green Master Mix (Applied Biosystems) for 15 minutes at 95° C. for initial denaturing, followed by 40 cycles of 95° C. for 15 s and 60° C. for 60 s in ViiA 7 Real-Time PCR System (Applied Biosystems). At least two independent experiments were done. Values for each gene were normalized to expression levels of GAPDH mRNA. The following primers were used: TNF, [NT] ID NO:3) and [NT] ID NO:4); […] GAPDH, [NT] ID NO:7) and [NT] ID NO:8). […] After 48 hours, supernatant and cell lysates were collected. Supernatant medium was concentrated 5-10-fold with Pierce protein concentrator (ThermoFisher). TNF protein concentration in supernatant, cell lysates and tissue extracts was determined by ELISA using a commercial TNF detection kit (ThermoFisher) according to manufacturer's instructions. Additionally, GAS6 protein concentration in supernatant was measured by ELISA kit (LifeSpan BioSciences).

[7] = test system: JNK-Axl-ERK signaling axis; test: Signal transduction in intracranial GBM9 tumors (Western blot, IHC); format: in vivo, mice; conditions: thalidomide given with erlotinib
Protocol: (§2) To detect the in vivo levels of TNF, 1×10^6 GBM9 cells were injected into the right flanks of nude mice. When the subcutaneous tumor reached a volume of around 200 mm^3, the mice were treated with erlotinib to monitor the upregulation of TNF protein. The animals were dosed consecutively for 1, 2, 7 or 14 days and then sacrificed. The animals without treatment were considered as control (0-day treatment). Tumor tissues were rinsed in PBS and protein was extracted to analyze the TNF levels using ELISA and also used for western blot. To detect the protein expression in mice brain tumor tissues upon drug treatment, the same procedure was performed in orthotopic models. Additionally, with orthotopic models, mice were divided into four groups (control gavage group, erlotinib group, thalidomide group and erlotinib plus thalidomide, n=3). After 48 hours treatment tumors were harvested and subjected to Western blot and immunostaining.
Tumors from nude mice brains were fixed in 10% formalin and embedded in paraffin. Paraffin-embedded sections were cut at five-micrometer thickness. Immunohistochemical staining was performed using the ABC streptavidin-biotin method with the Vectastain ABC kit (Vector Laboratories, Burlingame, CA, USA) according to the manufacturer's protocol. Briefly, after deparaffinization and rehydration, endogenous peroxidase activity was quenched by a 10 min incubation in 3% H2O2. For antigen retrieval, the tissue sections were boiled in 10 mM sodium citrate buffer (pH 6.0) for 20 minutes. Binding of primary anti-pERK (1:100, Cell Signaling Technology, 4376) or anti-pJNK antibody (1:200, Cell signaling Technology, 4668) or anti-pAXL(1:400, R&D, AF2228) was carried out overnight at 4° C. The signal was detected by using the Sigmafast 3,3′-Diaminobenzidine tablets (DAB; Sigma, St. Louis MO). The sections were counterstained lightly with hematoxylin. The IHC staining intensity was scored semiquantitatively as: 0=No positive staining; 1=1-25% tumor cells stained, 2=26%-75% tumor cells stained and 3=>75% tumor cells stained.

[8] = test system: ERK; test: Western blot, ERK activation (pERK) in glioma cells; conditions: GBM9 neurospheres
Protocol: Western blot analysis was performed according to standard protocols. In all experiments, before the addition of EGF or erlotinib established cells were cultured overnight in serum free DMEM and primary GBM neurospheres were EGF starved overnight. Cells not treated with EGF or erlotinib were also serum or EGF starved.

[9] = test system: TNF; test: TNF ELISA on GBM9 xenograft tumor extracts; format: in vivo, mice
Protocol: as §2

For C#Cc1cccc(Nc2ncnc3cc(OCCOC)c(OCCOC)cc23)c1 [erlotinib], the Met activation [1] was “induces activation of Met in established cell lines, but only in one patient derived neurosphere 987”, the AP-1 reporter activity [2] was “increased activity of the AP-1 reporter” and the “Cell viability, erlotinib alone at low concentration” value ([3]; erlotinib 100 nM) was “resistant to EGFR inhibition”. The “Cell viability, erlotinib alone at 1 μM” value ([3]; erlotinib 1 μM) was “significant cell death”, the “NF-κB reporter / transcriptional activity” value [4] was “does not result in an increase in NF-κB reporter activity” and the “Body weight of orthotopic models” value [5] was “Body weight losses”. The GAS6 expression [6] was “increase in GAS6”, the “JNK-Axl-ERK signaling axis in intracranial tumors (Western blot)” value ([7]; erlotinib 50 mg/kg) was “Activation of the JNK-Axl-ERK signaling axis can be detected in intracranial tumors” and the “pAxl, pJNK and pERK immunostaining of brain sections” value ([7]; orthotopic model) was “higher expression of pAxl, pJNK and pERK compared to vehicle group”. For the same compound, the “ERK activation after addition of erlotinib” value ([8]; erlotinib 1 μM, early time points) was “decreased after addition of erlotinib”, the “Feedback reactivation of ERK under continued EGFR inhibition” value ([8]; erlotinib 1 μM or afatinib 100 nM) was “reactivation of ERK is seen at 24-48 h” and the “TNF level in subcutaneous mouse tumors” value ([9]; GBM9 flank tumors, erlotinib 50 mg/kg) was “increase in TNF can be detected 1 day after administration of erlotinib”. For the same compound, the “Time to upregulation of TNF in GBM xenograft tumors” value ([9]; erlotinib) was “about 24 hours”.
